Data reported in US20080139525A1, “ANTIOXIDANT THERAPIES” (The Brigham and Women's Hospital, Inc., priority 2006, published 2008).

Experiments:
[1] = system: rat hearts; test: No-flow ischemia-reperfusion of hearts after 2 weeks of Se supplementation (Example 2); format: in vivo; conditions: 23 μM M40403 in perfusate with sodium selenite 50 μg/kg/day for 2 weeks; compared to M40403 without sodium selenite
Procedure: Hearts were isolated from rats and perfused in the Langendorff mode as previously described (Jain et al., Am J Physiol. 2001; 280:H569-H575; Lim et al., Am J Physiol. 1999; 277:H2083-H2090). Briefly, animals were injected intraperitoneally with heparin (10,000 U/kg) and anesthetized with a mixture of ketamine (150 mg/kg) and xylazine (15 mg/kg). The thorax was rapidly opened and the heart excised and arrested in ice-cold saline. A short perfusion cannula was inserted into the aortic root to initiate retrograde perfusion. The hearts were perfused with Krebs-Henseleit buffer (in mmol/L: NaCl 118, KCl 4.7, CaCl2 1.8, KH2PO4 1.2, MgSO4 1.2, NaHCO3 24.0, and glucose 10.0) equilibrated with 95% O2/5% CO2 to yield a pH of 7.4. A thin cannula was pierced through the apex of the left ventricle (LV) to vent thebesian drainage. A ventricular balloon, composed of polyvinyl chloride film and connected to a polyethylene tube, was inserted into the LV through the mitral valve via an incision in the left atrium. […]
Hearts were treated first for 2 weeks with or without Se supplementation (as sodium selenite, 50 μg/kg/day), after which they were subjected to no-flow ischemia-reperfusion with 23 μM of the SOD mimetic M40403 added to the perfusate. EDP and DevP (as measures of ventricular performance) were monitored over time following restoration of perfusion. […]

[2] = system: isolated rat hearts (wild-type and GPx-TG); test: Langendorff isolated heart, zero-flow ischemia followed by reperfusion (Example 1); format: ex vivo; conditions: compared with vehicle control
Procedure: Hearts were isolated from rats and perfused in the Langendorff mode as previously described (Jain et al., Am J Physiol. 2001; 280:H569-H575; Lim et al., Am J Physiol. 1999; 277:H2083-H2090). Briefly, animals were injected intraperitoneally with heparin (10,000 U/kg) and anesthetized with a mixture of ketamine (150 mg/kg) and xylazine (15 mg/kg). The thorax was rapidly opened and the heart excised and arrested in ice-cold saline. A short perfusion cannula was inserted into the aortic root to initiate retrograde perfusion. The hearts were perfused with Krebs-Henseleit buffer (in mmol/L: NaCl 118, KCl 4.7, CaCl2 1.8, KH2PO4 1.2, MgSO4 1.2, NaHCO3 24.0, and glucose 10.0) equilibrated with 95% O2/5% CO2 to yield a pH of 7.4. A thin cannula was pierced through the apex of the left ventricle (LV) to vent thebesian drainage. A ventricular balloon, composed of polyvinyl chloride film and connected to a polyethylene tube, was inserted into the LV through the mitral valve via an incision in the left atrium. The balloon was connected to a pressure transducer (Statham P23Db, Gould) for recording of LV pressures. The balloon was inflated with saline to adjust the end-diastolic pressure (EDP) to 10 mm Hg, and the balloon volume was held constant for the duration of the experiment. Hearts were paced (Grass Instruments) with platinum wires placed on the epicardial surface of the right ventricle. Coronary perfusion pressure was held constant during the duration of the experiment at 80 mm Hg. An inline ultrasonic flow probe (Transonics Systems Inc) was positioned immediately above the aortic cannula to measure coronary flow. Systolic pressure, EDP, and coronary flow were collected online by use of a commercially available data acquisition system (PowerLab ADInstruments). Developed pressure (DevP) (the difference between systolic and diastolic pressures) and EDP were used as indices of contractile and diastolic function, respectively.
During 20 minutes of baseline stabilization, all hearts were maintained at 37° C. and paced at 7 Hz. Hearts were subsequently subjected to 15 minutes of zero-flow ischemia followed by 30 minutes of reperfusion with or without a reperfusion solution containing 23 μM of the SOD mimetic M40403. The EDP was higher and DevP was lower in the wild-type (WT) rats with this treatment compared with vehicle control.

[3] = GPx-TG (glutathione peroxidase-1 transgene) with added dietary selenium, 23 μM M40403 in reperfusion solution
[4] = wild-type (WT) rats, 15 min zero-flow ischemia, 30 min reperfusion with 23 μM M40403

Structure (SMILES): [Cl-].[Cl-].[Mn+2].c1cc2nc(c1)CN[C@@H]1CCCC[C@H]1NCCN[C@@H]1CCCC[C@H]1NC2 [M40403]
- end-diastolic pressure (EDP) [1]: improved EDP (i.e., lower EDP)
- developed pressure (DevP) [2, 3]: no change
- end-diastolic pressure (EDP) [2, 3]: improved EDP (i.e., lower EDP)
- developed pressure (DevP) [2, 4]: lower
- end-diastolic pressure (EDP) [2, 4]: higher
